Numbered stars: 1 amine (or outer) side, 2 acyl side, 3 side chain; on linkers, the order of the positions; unused ones are H or OH. Bridge positions count the residues as written; N and C are the ends. Square brackets hold non-standard residues; d marks the D form. Peptide text beside a SMILES is read from it. * marks the point of attachment. C20 diacid = O=C(O)CCCCCCCCCCCCCCCCCCC(=O)*; γGlu = O=C(O)[C@H](CCC(=O)[*:2])N[*:1]; NMeI = CC[C@H](C)[C@H](NC)C(=O)O; Sar = CNCC(=O)O
How the values were obtained:
[1] = molecular target: T1, human calcitonin receptor (hCTR2) (Homo sapiens, UniProt P30988); assay: hCTR2 assay: induction of cAMP (AlphaScreen cAMP Assay kit) in COS7 cells expressing hCTR2; type: cell-based; conditions: cAMP induction in COS7 cells expressing hCTR2; average of a minimum of 3 determinations; read-out: hCTR2 EC50
T1 construct: expressed in transfected cells
T1 sequence (P30988 25-474): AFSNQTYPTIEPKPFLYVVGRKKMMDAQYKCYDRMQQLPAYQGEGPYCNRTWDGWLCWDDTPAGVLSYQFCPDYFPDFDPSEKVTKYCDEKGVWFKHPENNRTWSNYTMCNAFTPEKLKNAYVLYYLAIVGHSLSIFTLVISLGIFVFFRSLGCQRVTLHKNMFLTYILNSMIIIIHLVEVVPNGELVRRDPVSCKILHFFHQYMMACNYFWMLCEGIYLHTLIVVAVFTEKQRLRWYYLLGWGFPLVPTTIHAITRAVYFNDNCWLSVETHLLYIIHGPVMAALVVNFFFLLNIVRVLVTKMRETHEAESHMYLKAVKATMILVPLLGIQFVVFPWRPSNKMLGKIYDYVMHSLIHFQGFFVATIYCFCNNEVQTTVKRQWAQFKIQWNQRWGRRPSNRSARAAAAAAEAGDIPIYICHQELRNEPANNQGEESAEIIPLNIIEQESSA
Procedure, shortened: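 Functional agonism is measured as cAMP accumulation in a COS7 line stably transfected with hCTR2, lacking endogenous RAMPs. Peptides act for 15 min at 37° C with IBMX present, and curves are fitted with a 4-parameter logistic model.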

[2] = Solubility assessment (turbidity absorbance at 325 nm); type: physicochemical; conditions: stock 2 mg/ml diluted 1:1, ambient temperature (typically 25°C), n=1; for Solubility, Acetate buffer pH 4: 100 mM acetate buffer pH 4.0; for Solubility, Acetate buffer pH 5: 100 mM acetate buffer pH 5.0; for Solubility, Histidine buffer pH 6: 100 mM histidine buffer pH 6.0; for Solubility, Histidine buffer pH 7: 100 mM histidine buffer pH 7.0; for Solubility, Phosphate buffer pH 6: 100 mM phosphate buffer pH 6.0; for Solubility, Phosphate buffer pH 7: 100 mM phosphate buffer pH 7.0; for Solubility, Phosphate buffer pH 7.5: 100 mM phosphate buffer pH7.5
Procedure, shortened: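 Peptide stock (2 mg/ml) in water acidified to pH 2.5 with HCl was diluted 1:1 into 100 mM acetate (pH 4.0, 5.0), histidine (pH 6.0, 7.0) or phosphate (pH 6.0, 7.0, 7.5) buffer. A280 and A325 were read at about 25°C, n=1. A325 ≤ 0.02 meant solubility ≥ 1 mg/ml.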

Compound | EC50 [1] | Solubility, Acetate buffer pH 4 [2] | Solubility, Acetate buffer pH 5 [2] | Solubility, Histidine buffer pH 6 [2] | Solubility, Histidine buffer pH 7 [2] | Solubility, Phosphate buffer pH 6 [2] | Solubility, Phosphate buffer pH 7 [2] | Solubility, Phosphate buffer pH 7.5 [2]
CC[C@H](C)[C@@H](C(=O)N[C@@H](CC(C)C)C(=O)N[C@@H](CO)C(=O)N[C@@H](CO)C(=O)N[C@H](C(=O)N[C@@H](CC(=O)O)C(=O)N[C@H](C(=O)NCC(=O)N[C@@H](CO)C(=O)N[C@@H](CCC(=O)O)C(=O)N[C@H](C(=O)N1CCC[C@H]1C(N)=O)[C@@H](C)O)C(C)C)[C@@H](C)O)N(C)C(=O)[C@H](C)NC(=O)CN(C)C(=O)[C@H](Cc1ccccc1)NC(=O)[C@H](CO)NC(=O)[C@H](CO)NC(=O)[C@H](CO)NC(=O)[C@H](CO)NC(=O)[C@H](CCCNC(=N)N)NC(=O)[C@H](Cc1c[nH]cn1)NC(=O)[C@H](CC(C)C)NC(=O)[C@H](Cc1ccccc1)NC(=O)[C@H](CCC(=O)O)NC(=O)[C@H](C)NC(=O)[C@H](CC(C)C)NC(=O)[C@H](CCCNC(=N)N)NC(=O)[C@H](CCC(N)=O)NC(=O)[C@@H](NC(=O)[C@H](C)NC(=O)[C@@H]1CSSC[C@H](NC(=O)[C@H](CCCNC(=N)N)NC(=O)CC[C@H](NC(=O)CCCCCCCCCCCCCCCCCCC(=O)O)C(=O)O)C(=O)N[C@@H](CC(N)=O)C(=O)N[C@@H]([C@@H](C)O)C(=O)N[C@@H](C)C(=O)N[C@@H]([C@@H](C)O)C(=O)N1)[C@@H](C)O [Compound 74, [19CD]-isoGlu-RC()NTATC()ATQRLAEFLHRSSSSF-Gly(Me)-A-Ile(Me)-LSSTDVGSETP-NH2] ({C20 diacid-γGlu}-RCNTATCATQRLAEFLHRSSSSF[Sar]A[NMeI]LSSTDVGSETP-NH2; disulfide 2-7) | 97 pM | SS (SS indicates solubility ≥ 1mg/ml) | SS (SS indicates solubility ≥ 1mg/ml) | SS (SS indicates solubility ≥ 1mg/ml) | SS (SS indicates solubility ≥ 1mg/ml) | SS (SS indicates solubility ≥ 1mg/ml) | SS (SS indicates solubility ≥ 1mg/ml) | SS (SS indicates solubility ≥ 1mg/ml)
CC[C@H](C)[C@@H](C(=O)N[C@@H](CC(C)C)C(=O)N[C@@H](CO)C(=O)N[C@@H](CO)C(=O)N[C@H](C(=O)N[C@@H](CC(=O)O)C(=O)N[C@H](C(=O)NCC(=O)N[C@@H](CO)C(=O)N[C@@H](CCC(=O)O)C(=O)N[C@H](C(=O)N1CCC[C@H]1C(N)=O)[C@@H](C)O)C(C)C)[C@@H](C)O)N(C)C(=O)CN(C)C(=O)[C@H](Cc1ccccc1)NC(=O)[C@H](CO)NC(=O)[C@H](CO)NC(=O)[C@H](CO)NC(=O)[C@H](CO)NC(=O)[C@H](CCCNC(=N)N)NC(=O)[C@H](Cc1c[nH]cn1)NC(=O)[C@H](CC(C)C)NC(=O)[C@H](Cc1ccccc1)NC(=O)[C@H](CCC(=O)O)NC(=O)[C@H](C)NC(=O)[C@H](CC(C)C)NC(=O)[C@H](CCCNC(=N)N)NC(=O)[C@H](CCC(N)=O)NC(=O)[C@@H](NC(=O)[C@H](C)NC(=O)[C@@H]1CSSC[C@H](NC(=O)[C@H](CCCNC(=N)N)NC(=O)CC[C@H](NC(=O)CCCCCCCCCCCCCCCCCCC(=O)O)C(=O)O)C(=O)N[C@@H](CC(N)=O)C(=O)N[C@@H]([C@@H](C)O)C(=O)N[C@@H](C)C(=O)N[C@@H]([C@@H](C)O)C(=O)N1)[C@@H](C)O [Compound 75, [19CD]-isoGlu-RC()NTATC()ATQRLAEFLHRSSSSF-Gly(Me)-Ile(Me)-LSSTDVGSETP-NH2] ({C20 diacid-γGlu}-RCNTATCATQRLAEFLHRSSSSF[Sar][NMeI]LSSTDVGSETP-NH2; disulfide 2-7) | 110 pM | SS (SS indicates solubility ≥ 1mg/ml) | II (II indicates solubility ≤ 1 mg/ml) | II (II indicates solubility ≤ 1 mg/ml) | SS (SS indicates solubility ≥ 1mg/ml) | SS (SS indicates solubility ≥ 1mg/ml) | SS (SS indicates solubility ≥ 1mg/ml) | SS (SS indicates solubility ≥ 1mg/ml)
CC[C@H](C)[C@@H](C(=O)N[C@@H](CC(C)C)C(=O)N[C@@H](CO)C(=O)N[C@@H](CO)C(=O)N[C@H](C(=O)N[C@@H](CCC(=O)O)C(=O)N[C@H](C(=O)NCC(=O)N[C@@H](CO)C(=O)N[C@@H](CC(=O)O)C(=O)N[C@H](C(=O)N1CCC[C@H]1C(N)=O)[C@@H](C)O)C(C)C)[C@@H](C)O)N(C)C(=O)[C@H](C)NC(=O)CN(C)C(=O)[C@H](Cc1ccccc1)NC(=O)[C@H](CO)NC(=O)[C@H](CO)NC(=O)[C@H](CCCNC(=N)N)NC(=O)[C@H](Cc1c[nH]cn1)NC(=O)[C@H](CC(C)C)NC(=O)[C@H](Cc1ccccc1)NC(=O)[C@H](CCC(=O)O)NC(=O)[C@H](C)NC(=O)[C@H](CC(C)C)NC(=O)[C@H](CCCNC(=N)N)NC(=O)[C@H](CCC(N)=O)NC(=O)[C@@H](NC(=O)[C@H](C)NC(=O)[C@@H]1CSSC[C@H](NC(=O)[C@H](CCCNC(=N)N)NC(=O)CC[C@H](NC(=O)CCCCCCCCCCCCCCCCCCC(=O)O)C(=O)O)C(=O)N[C@@H](CC(N)=O)C(=O)N[C@@H]([C@@H](C)O)C(=O)N[C@@H](C)C(=O)N[C@@H]([C@@H](C)O)C(=O)N1)[C@@H](C)O [Compound 78, [19CD]-isoGlu-RC()NTATC()ATQRLAEFLHRSSF-Gly(Me)-A-Ile(Me)-LSSTEVGSDTP-NH2] ({C20 diacid-γGlu}-RCNTATCATQRLAEFLHRSSF[Sar]A[NMeI]LSSTEVGSDTP-NH2; disulfide 2-7) | 70 pM | SS (SS indicates solubility ≥ 1mg/ml) | SS (SS indicates solubility ≥ 1mg/ml) | SS (SS indicates solubility ≥ 1mg/ml) | SS (SS indicates solubility ≥ 1mg/ml) | SS (SS indicates solubility ≥ 1mg/ml) | SS (SS indicates solubility ≥ 1mg/ml) | SS (SS indicates solubility ≥ 1mg/ml)
CC[C@H](C)[C@@H](C(=O)N[C@@H](CC(C)C)C(=O)N[C@@H](CO)C(=O)N[C@@H](CO)C(=O)N[C@H](C(=O)N[C@@H](CCC(=O)O)C(=O)N[C@H](C(=O)NCC(=O)N[C@@H](CO)C(=O)N[C@@H](CC(=O)O)C(=O)N[C@H](C(=O)N1CCC[C@H]1C(N)=O)[C@@H](C)O)C(C)C)[C@@H](C)O)N(C)C(=O)CN(C)C(=O)[C@H](Cc1ccccc1)NC(=O)[C@H](CO)NC(=O)[C@H](CO)NC(=O)[C@H](CCCNC(=N)N)NC(=O)[C@H](Cc1c[nH]cn1)NC(=O)[C@H](CC(C)C)NC(=O)[C@H](Cc1ccccc1)NC(=O)[C@H](CCC(=O)O)NC(=O)[C@H](C)NC(=O)[C@H](CC(C)C)NC(=O)[C@H](CCCNC(=N)N)NC(=O)[C@H](CCC(N)=O)NC(=O)[C@@H](NC(=O)[C@H](C)NC(=O)[C@@H]1CSSC[C@H](NC(=O)[C@H](CCCNC(=N)N)NC(=O)CC[C@H](NC(=O)CCCCCCCCCCCCCCCCCCC(=O)O)C(=O)O)C(=O)N[C@@H](CC(N)=O)C(=O)N[C@@H]([C@@H](C)O)C(=O)N[C@@H](C)C(=O)N[C@@H]([C@@H](C)O)C(=O)N1)[C@@H](C)O [Compound 79, [19CD]-isoGlu-RC()NTATC()ATQRLAEFLHRSSF-Gly(Me)-Ile(Me)-LSSTEVGSDTP-NH2] ({C20 diacid-γGlu}-RCNTATCATQRLAEFLHRSSF[Sar][NMeI]LSSTEVGSDTP-NH2; disulfide 2-7) | 100 pM | SS (SS indicates solubility ≥ 1mg/ml) | SS (SS indicates solubility ≥ 1mg/ml) | SS (SS indicates solubility ≥ 1mg/ml) | SS (SS indicates solubility ≥ 1mg/ml) | SS (SS indicates solubility ≥ 1mg/ml) | SS (SS indicates solubility ≥ 1mg/ml) | SS (SS indicates solubility ≥ 1mg/ml)

From patent EP3046573B1, “AMYLIN ANALOGUES” (Zealand Pharma A/S, priority 2013, dated 2015)
